From patent US20210386069A1 (priority 2018, published 2021) come the findings set out here.

What is called logP is the decadic logarithm of the partition coefficient of the neutral form, usually between octanol and water. As usually defined, the chromatographic logP is lipophilicity estimated from chromatographic retention.

A short description of one data set: log P by HPLC on a reversed-phase column (C 18), EEC Directive 79/831 Annex V.A8. It is filed as physicochemical. The conditions noted are these: HPLC reversed-phase C 18, 40° C., 0.1% aqueous formic acid and acetonitrile, linear gradient 10% to 95% acetonitrile. How it is done: In table 1, the log P values were determined in accordance with EEC Directive 79/831 Annex V.A8 by HPLC (High Performance Liquid Chromatography) on a reversed-phase column (C 18), using the method described below:
temperature: 40° C.; mobile phases: 0.1% aqueous formic acid and acetonitrile; linear gradient from 10% acetonitrile to 95% acetonitrile;
If more than one Log P value is available within the same method, all the values are given and separated by “;”.
Calibration was carried out using unbranched alkan-2-ones (comprising 3 to 16 carbon atoms) with known log P values (determination of the log P values by the retention times using linear interpolation between two successive alkanones). lambda-max-values were determined using UV-spectra from 200 nm to 400 nm and the peak values of the chromatographic signals.
For the compound `COc1cnccc1-c1c(F)cccc1Nc1cc2ccc(F)c(F)c2nc1C` [I.081], the logP is on record as 2.44.

`COc1ccncc1-c1c(F)cccc1Nc1cc2ccc(F)c(F)c2nc1C` [I.082] gave a logP of 1.84.

In turn, `COc1cc(-c2c(F)cccc2Nc2cc3ccc(F)c(F)c3nc2C)ccn1` [I.083] yielded a logP of 3.71.

Consider `Cc1cnc(Cl)c(-c2ccccc2Nc2cc3ccc(F)c(F)c3nc2C)c1` [I.084], for which the logP amounted to 3.69.

`Cc1nc2c(F)c(F)ccc2cc1Nc1ccccc1-c1ccc(Cl)nc1C` [I.085] returned a logP of 3.94.

Compound `Cc1cc(Cl)ncc1-c1ccccc1Nc1cc2ccc(F)c(F)c2nc1C` [I.086] came in with a logP of 3.98.

Compound `Cc1cc(-c2ccccc2Nc2cc3ccc(F)c(F)c3nc2C)cnc1Cl` [I.087] had a logP of 3.91.

Take `COc1ncc(-c2c(F)cccc2Nc2cc3ccc(F)c(F)c3nc2C)cn1` [I.088]: the logP worked out at 3.08.

The compound `Cc1cc(-c2c(F)cccc2Nc2cc3ccc(F)c(F)c3nc2C)cnc1F` [I.089] had a logP of 3.75.

`Cc1nc2c(F)c(F)ccc2cc1Nc1ccccc1-c1cncc(F)c1Cl` [I.090] displayed a logP of 3.62.

In turn, `Cc1nc2c(F)c(F)ccc2cc1Nc1cccc(F)c1-c1ccnc(Cl)c1` [I.091] yielded a logP of 3.69.

Compound `Cc1nc2c(F)c(F)ccc2cc1Nc1cccc(F)c1-c1ccc(Cl)nc1` [I.092] showed a log partition coefficient (logP) of 3.72.

With `Cc1nc2c(F)c(F)ccc2cc1Nc1cccc(F)c1-c1ccncc1Cl` [I.093], the logP was 3.46.

Consider `Cc1nc2c(F)c(F)ccc2cc1Nc1cccc(F)c1-c1cccnc1Cl` [I.094], for which the logP worked out at 3.50.

Compound `Cc1nc2c(F)c(F)ccc2cc1Nc1ccccc1-c1cc(Cl)cnc1F` [I.095] showed a logP of 4.01.

Regarding `Cc1nc2c(F)c(F)ccc2cc1Nc1ccccc1-c1ccnc(F)c1Cl` [I.096], the log partition coefficient (logP) is 3.91.

Compound `Cc1nc2c(F)c(F)ccc2cc1Nc1ccccc1-c1cc(F)cnc1Cl` [I.097] yielded a logP of 3.81.

Compound `Cc1nc2c(F)c(F)ccc2cc1Nc1ccccc1-c1cc(Cl)ncc1F` [I.098] returned a logP of 3.91.

For the compound `Cc1nc2c(F)c(F)ccc2cc1Nc1cccc(F)c1-c1cncc(Cl)c1` [I.099], the logP is given as 3.60.

With `Cc1nc2c(F)c(F)ccc2cc1Nc1cccc(F)c1-c1cc(F)nc(F)c1` [I.100], the logP is 3.98.

In turn, `Cc1nc2c(F)c(F)ccc2cc1Nc1cccc(F)c1-c1ccnc(F)c1F` [I.101] gave a logP of 3.81.

With `Cc1nc2c(F)c(F)ccc2cc1Nc1cccc(F)c1-c1ccc(F)nc1F` [I.103], the lipophilicity (logP) stood at 3.84.

`Cc1nc2c(F)c(F)ccc2cc1Nc1cccc(F)c1-c1cccnc1C1CC1` [I.105] yielded a logP of 3.25.

The compound `Cc1nc2c(F)c(F)ccc2cc1Nc1cccc(F)c1-c1ccncc1C1CC1` [I.106] came in with a logP of 2.49.

In turn, `Cc1nc2c(F)c(F)ccc2cc1Nc1ccccc1-c1ccc(OC(C)C)nc1` [I.107] gave a logP of 4.43.

Take `COc1ccc(-c2ccccc2Nc2cc3ccc(F)c(F)c3nc2C)c(OC)n1` [I.108]: the logP amounted to 4.62. The logP values of the last two compounds are within 0.2 log units of each other.

`CCCc1ncccc1-c1c(F)cccc1Nc1cc2ccc(F)c(F)c2nc1C` [I.109] displayed a logP of 2.62.

Take `CCCc1cnccc1-c1c(F)cccc1Nc1cc2ccc(F)c(F)c2nc1C` [I.110]: the log partition coefficient (logP) came out at 2.89.

The compound `CCCc1ccncc1-c1c(F)cccc1Nc1cc2ccc(F)c(F)c2nc1C` [I.111] displayed a logP of 2.75.

On to `CCOc1ccc(-c2c(F)cccc2Nc2cc3ccc(F)c(F)c3nc2C)cn1` [I.112], for which the lipophilicity (logP) stood at 4.09.

Turning to `CCOc1ncccc1-c1c(F)cccc1Nc1cc2ccc(F)c(F)c2nc1C` [I.113], the logP amounted to 4.13.

For the compound `CSc1ccc(-c2c(F)cccc2Nc2cc3ccc(F)c(F)c3nc2C)cn1` [I.114], the logP is 3.91.

For `CSc1ncccc1-c1c(F)cccc1Nc1cc2ccc(F)c(F)c2nc1C` [I.115], the logP turned out to be 3.98. The logP values of the last two compounds are within 0.2 log units of each other.

`COc1nccc(-c2ccccc2Nc2cc3ccc(F)c(F)c3nc2C)c1Cl` [I.116] showed a logP of 4.09.

Turning to `COc1c(-c2c(F)cccc2Nc2cc3ccc(F)c(F)c3nc2C)ccnc1F` [I.117], the lipophilicity (logP) is listed as 3.75.

Compound `Cc1cnc(Cl)c(-c2c(F)cccc2Nc2cc3ccc(F)c(F)c3nc2C)c1` [I.118] displayed a logP of 3.75.

Regarding `Cc1cc(-c2c(F)cccc2Nc2cc3ccc(F)c(F)c3nc2C)cnc1Cl` [I.119], the logP came out at 3.98.

Compound `Cc1nc2c(F)c(F)ccc2cc1Nc1cccc(F)c1-c1ccc(Cl)nc1C` [I.120] came in with a logP of 4.01. The logP values of the last two compounds are within 0.2 log units of each other.

For the compound `Cc1cc(Cl)ncc1-c1c(F)cccc1Nc1cc2ccc(F)c(F)c2nc1C` [I.121], the logP is recorded as 4.01.

For `Cc1nc2c(F)c(F)ccc2cc1Nc1ccccc1-c1cncc(C(F)(F)F)c1` [I.122], the logP was found to be 3.65.

In the case of `Cc1nc2c(F)c(F)ccc2cc1Nc1ccccc1-c1ccc(C(F)(F)F)nc1` [I.123], the logP is 3.91.

In turn, `Cc1nc2c(F)c(F)ccc2cc1Nc1ccccc1-c1cc(Cl)cnc1Cl` [I.124] came in with a lipophilicity (logP) of 4.13.

Turning to `Cc1nc2c(F)c(F)ccc2cc1Nc1cccc(F)c1-c1cc(Cl)ncc1F` [I.126], the logP was 3.98. This logP and that of the compound before are within 0.2 log units of each other.

In turn, `Cc1nc2c(F)c(F)ccc2cc1Nc1cccc(F)c1-c1cc(F)cnc1Cl` [I.127] returned a logP of 3.87.

Take `Cc1nc2c(F)c(F)ccc2cc1Nc1cccc(F)c1-c1cc(Cl)cnc1F` [I.128]: the logP turned out to be 4.05.

`Cc1nc2c(F)c(F)ccc2cc1Nc1cccc(F)c1-c1ccnc(F)c1Cl` [I.129] showed a logP of 3.98.

The compound `Cc1nc2c(F)c(F)ccc2cc1Nc1cccc(F)c1-c1ccc(OC(C)C)nc1` [I.130] came in with a logP of 4.47.

As for `COc1ccc(-c2c(F)cccc2Nc2cc3ccc(F)c(F)c3nc2C)c(OC)n1` [I.131], the logP was determined as 4.43.

Regarding `COc1nccc(-c2c(F)cccc2Nc2cc3ccc(F)c(F)c3nc2C)c1Cl` [I.132], the logP was 4.09.

Consider `Cc1nc2c(F)c(F)ccc2cc1Nc1cccc(F)c1-c1cncc(C(F)(F)F)c1` [I.133], for which the logP was 3.75.

With `Cc1nc2c(F)c(F)ccc2cc1Nc1cccc(F)c1-c1ccc(C(F)(F)F)nc1` [I.134], the logP worked out at 3.94. This logP and that of the compound before are within 0.2 log units of each other.

In turn, `COc1cc(-c2ccccc2Nc2cc3ccc(F)c(F)c3nc2C)c(Br)cn1` [I.135] registered a logP of 4.36.

On to `Cc1nc2c(F)c(F)ccc2cc1Nc1cccc(F)c1-c1cc(F)cnc1F` [I.136], for which the logP was found to be 3.71.

Turning to `Cc1nc2c(F)c(F)ccc2cc1Cc1cccnc1-c1ccnc(F)c1` [I.137], the logP is listed as 2.52.

`Fc1cc(-c2cscc2Cc2cnc3c(F)cccc3c2)ccn1` [I.139] came in with a logP of 3.11.

The data set is the same for the next values; noted with them: reversed-phase HPLC column (C 18); preparation examples; log P as defined in table 1 (HPLC, 0.1% aqueous formic acid/acetonitrile).
In turn, `Cc1nc2c(F)c(F)ccc2cc1Nc1cccc(F)c1-c1cnccc1C1CC1` [I.104, N-[2-(4-cyclopropylpyridin-3-yl)-3-fluorophenyl]-7,8-difluoro-2-methylquinolin-3-amine] gave a chromatographic logP of 2.12.

With `Cc1nc2c(F)c(F)ccc2cc1Cc1cscc1-c1ccnc(F)c1` [I.138, 7,8-difluoro-3-{[4-(2-fluoropyridin-4-yl)-3-thienyl]methyl}-2-methylquinoline], the chromatographic logP was found to be 3.64.

Turning to `Cc1nc2c(F)c(F)ccc2cc1Nc1cccc(F)c1Br` [N-(2-bromo-3-fluorophenyl)-7,8-difluoro-2-methylquinolin-3-amine], the chromatographic logP is 3.28.
